According to patent publication US20060019907A1, “Guggulsterone: an inhibitor of nuclear factor - kappaB and IkappaBalpha kinase activation and uses thereof” (Research Development Foundation, priority 2004, published 2006):

B1: NF-κB p50 subunit (NF-κB1) in nuclear extracts of TNF-treated human H1299 cells (other, UniProt P19838 1-433, looked up)
chain: MAEDDPYLGRPEQMFHLDPSLTHTIFNPEVFQPQMALPTDGPYLQILEQPKQRGFRFRYVCEGPSHGGLPGASSEKNKKSYPQVKICNYVGPAKVIVQLVTNGKNIHLHAHSLVGKHCEDGICTVTAGPKDMVVGFANLGILHVTKKKVFETLEARMTEACIRGYNPGLLVHPDLAYLQAEGGGDRQLGDREKELIRQAALQQTKEMDLSVVRLMFTAFLPDSTGSFTRRLEPVVSDAIYDSKAPNASNLKIVRMDRTAGCVTGGEEIYLLCDKVQKDDIQIRFYEEEENGGVWEGFGDFSPTDVHRQFAIVFKTPKYKDINITKPASVFVQLRRKSDLETSEPKPFLYYPEIKDKEEVQRKRQKLMPNFSDSFGGGSGAGAGGGGMFGSGGGGGGTGSTGPGYSFPHYGFPTYGGITFHPGTTKSNAGMKHG

Legend:
U937 cells = experiment: Cytotoxicity (MTT uptake) of guggulsterone with JNK inhibitor; assay type: cell-based, human; settings: 72 h
Description: Cytotoxicity assay. The cytotoxic effects of guggulsterone was determined by the MTT uptake method. Briefly, 5000 cells were incubated with guggulsterone in triplicate in a 96-well plate at 37° C. MTT solution was then added to each well. After a 2-h incubation at 37° C., extraction buffer (20% SDS, 50% dimethylformamide) was added, the cells were incubated overnight at 37° C., and the OD was then measured at 570 nm using a 96-well multiscanner (Dynex Technologies, MRX Revelation, Chantilly, Va.).

[1] = target: NF-κB p65 subunit (RelA) in nuclear extracts of TNF-treated human H1299 cells (human, UniProt Q04206 1-551); experiment: EMSA supershift assay, nuclear extracts of TNF-treated H1299 cells
Sequence of NF-κB p65 subunit (RelA) in nuclear extracts of TNF-treated human H1299 cells (Q04206 whole entry): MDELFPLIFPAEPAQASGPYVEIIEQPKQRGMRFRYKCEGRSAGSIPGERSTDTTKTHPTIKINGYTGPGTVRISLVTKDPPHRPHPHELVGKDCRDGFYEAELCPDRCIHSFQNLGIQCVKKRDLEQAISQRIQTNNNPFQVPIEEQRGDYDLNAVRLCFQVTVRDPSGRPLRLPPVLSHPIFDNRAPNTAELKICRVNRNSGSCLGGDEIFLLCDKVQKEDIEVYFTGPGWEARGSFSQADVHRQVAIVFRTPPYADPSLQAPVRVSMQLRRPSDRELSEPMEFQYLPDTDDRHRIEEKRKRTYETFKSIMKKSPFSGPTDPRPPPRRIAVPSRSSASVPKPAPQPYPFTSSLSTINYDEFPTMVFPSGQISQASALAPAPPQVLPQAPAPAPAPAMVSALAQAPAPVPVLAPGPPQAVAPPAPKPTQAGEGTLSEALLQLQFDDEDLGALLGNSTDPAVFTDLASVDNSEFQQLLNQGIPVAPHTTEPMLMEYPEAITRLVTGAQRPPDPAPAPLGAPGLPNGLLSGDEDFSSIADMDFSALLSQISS
Description: Nuclear extracts were prepared and tested for NF-κB activation. […] H1299 cells (2×10⁶/ml) were pre-incubated with 50 μM guggulsterone for the indicated times at 37° C. and then treated with 0.1 nM TNF for 30 min at 37° C. Nuclear extracts were prepared and then tested for NF-κB activation. […] Nuclear extracts from H1299 cells (2×10⁶/ml) treated or not treated with 0.1 nM TNF for 30 min were incubated with the antibodies indicated for 30 min at room temperature, and the complex was analyzed by supershift assay. […] Nuclear extracts from H1299 cells (2×10⁶/ml) treated or not treated with 0.1 nM TNF for 30 min were treated with the indicated concentrations of guggulsterone for 4 hours at room temperature and then assayed for DNA binding by EMSA.
NF-κB Activation: To determine NF-κB activation, EMSA was carried out as previously described (Chaturvedi et al., 2000). […] For supershift assays, nuclear extracts prepared from TNF-treated cells were incubated with antibodies against either the p50 or the p65 subunit of NF-κB for 30 min at room temperature before the complex was analyzed by EMSA. The dried gels were visualized, and radioactive bands were quantitated using a PHOSPHORIMAGER™ (Molecular Dynamics, Sunnyvale, Calif.) using IMAGEQUANT™ software.

| Molecule | guggulsterone induced cytotoxicity in combination with JNK inhibitor (U937 cells) | binding result [1] |
| --- | --- | --- |
| Oc1c2ccccc2c2c3c(cccc13)N=N2 [SP600125] | blocks guggulsterone induced cytotoxicity | – |
| B1 | – | binds |
